# Test results: patent publication US6391339B1, “Use of oligosaccharide for preventing blood clotting in extracorporeal blood circuits” (Akzo Nobel N.V., priority 1997, dated 2002)
# Test system: patients undergoing chronic intermittent haemodialysis
# Conditions: 12 haemodialysis patients; half an hour before the end of the last dialysis
# Procedure: The study consisted of 2 phases (block A and block B). In block A, 10 mg of Org 31540/SR 90107 A was administered. Thereafter, in block B, 8, 6, and 4 mg of Org 31540/SR 90107 A were used.
# Medication was given as an intravenous bolus predialysis for 1 dialysis each week. Efficacy was assessed by determining patency of the dialyzer, buffer and bubble chamber, every hour during dialysis by visual examination and by blood sampling of specific coagualtion, heamatologic and biochemical parameters. Anti-Xa plasma samples, to determine pharmacokinetics, were taken every hour during dialysis and 1 hour after dialysis and daily for 3 days post-dialysis. Safety was assessed by evaluating major and minor bleeding complications each dialysis.
structure (smiles),measurement,value
"CO[C@H]1O[C@H](COS(=O)(=O)O)[C@@H](O[C@@H]2O[C@@H](C(=O)O)[C@@H](O[C@H]3O[C@H](COS(=O)(=O)O)[C@@H](O[C@@H]4O[C@H](C(=O)O)[C@@H](O[C@H]5O[C@H](COS(=O)(=O)O)[C@@H](O)[C@H](O)[C@H]5NS(=O)(=O)O)[C@H](O)[C@H]4O)[C@H](OS(=O)(=O)O)[C@H]3NS(=O)(=O)O)[C@H](O)[C@H]2OS(=O)(=O)O)[C@H](O)[C@H]1NS(=O)(=O)O [Org 31540/SR 90107 A, methyl O—(2-deoxy-2-sulphoamino-6-O-suplho-α-D-glucopyranosyl)-(1→4)—O—(β-D-glucopyranosyluronic acid)-(1→4)—O—(2-deoxy-2-sulphoamino-3,6-di-O-sulpho-α-D-glucopyranosyl)-(1→4)—O—(2-O-sulpho-α-L-idopyranosyluronic acid)-(1→4)-2-deoxy-2-sulphoamino-6-O-sulpho-α-D-glucopyranoside]",clot in the buffer chamber making dialysis impossible,Only in one patient
